Source: patent US7511145B2 (Genelabs Technologies, Inc., priority 2003, dated 2009)

Biological target: T1, HCV-NS5b (Hepatitis C virus genotype 1b, UniProt Q9WMX2)
T1 construct: (His)6 (C); made in house; host or cells: XL-1 cells (E. coli), IPTG-inducible plasmid, nickel-NTA purification
Test: HCV-NS5b enzyme assay (incorporation of radiolabeled UTP)
Type: biochemical
Conditions: for inhibition at 33 µM: enzyme inhibition at compound concentration of 33 uM; for inhibition at 100 µM: read-out: % inh@100, enzyme inhibition at compound concentration of 100 uM
In short: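 Percent inhibition, background-corrected against uninhibited control, was measured at 100 and 33 uM compound. Incorporation of [3H]-UTP (10 μM each NTP) into biotinylated HCV-template RNA, 37° C for 2 h, pH 7.5, scintillation proximity. Enzyme: C-terminally truncated (21 aa), His6-tagged NS5b from XL-1.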

SMILES | inhibition at 33 µM [%] | inhibition at 100 µM [%]
COc1ccc(C2CCCCC2)c(-c2ccc3cc(-c4nc5cc(C(=O)O)ccc5n4C4CCCCC4)ccc3n2)c1 [Compound 545, 1-Cyclohexyl-2-[2-(2-cyclohexyl-5-methoxy-phenyl)-quinolin-6-yl]-1H-benzoimidazole-5-carboxylic acid] | 99.2 | 101
O=C(N[C@@H](Cc1c[nH]c2ccc(O)cc12)C(=O)O)c1ccc2c(c1)nc(-c1ccc3ncc(-c4ccccc4)nc3c1)n2C1CCCCC1 [Compound 236, 2-{[1-Cyclohexyl-2-(3-phenyl-quinoxalin-6-yl)-1H-benzoimidazole-5-carbonyl]-amino}-3-(5-hydroxy-1H-indol-3-yl)-propionic acid] | 99.2 | 99.2
COc1cccc(O)c1-c1ccc2cc(-c3nc4cc(C(=O)O)ccc4n3C3CCCCC3)ccc2n1 [Compound 434, 1-cyclohexyl-2-[2-(2-hydroxy-6-methoxy-phenyl)-quinolin-6-yl]-1H-benzoimidazole-5-carboxylic acid] | 105 | 102
O=C(O)c1ccc2c(c1)nc(-c1ccc3[nH]c(-c4ccccc4)cc(=O)c3c1)n2C1CCCCC1 [Compound 373, 1-cyclohexyl-2-(4-oxo-2-phenyl-1,4-dihydro-quinolin-6-yl)-1H-benzoimidazole-5-carboxylic acid] | 39.9 | 83.8
CSCC[C@H](NC(=O)c1ccc2c(c1)nc(-c1ccc3nc(-c4ccccc4)cnc3c1)n2C1CCCCC1)C(=O)O [Compound 515, 2-{[1-Cyclohexyl-2-(2-phenyl-quinoxalin-6-yl)-1H-benzoimidazole-5-carbonyl]-amino}-4-methylsulfanyl-butyric acid] | 81.9 | 88.3
NC(=O)[C@H](Cc1cnc[nH]1)NC(=O)c1ccc2cc(-c3nc4cc(C(=O)O)ccc4n3C3CCCCC3)ccc2n1 [Compound 368] | 51.2 | 79.5
O=C(O)c1ccc2c(c1)nc(-c1ccc3nc(-c4cccnc4)ccc3c1)n2C1CCCCC1 [Compound 355, 1-cyclohexyl-2-(2-pyridin-3-yl-quinolin-6-yl)-1H-benzoimidazole-5-carboxylic acid] | 72.3 | 89.3
CN(C(=O)c1ccc2cc(-c3nc4cc(C(=O)O)ccc4n3C3CCCCC3)ccc2n1)c1ccc(Cl)cc1 [Compound 546] | 95.3 | 102
O=C(O)c1ccc2c(c1)nc(-c1ccc3nc(-c4ccc(Cl)c(Cl)c4)ccc3c1)n2C1CCCCC1 [Compound 508, 1-cyclohexyl-2-[2-(3,4-dichloro-phenyl)-quinolin-6-yl]-1H-benzoimidazole-5-carboxylic acid] | 98.9 | 98.9
O=C(O)c1ccc2c(c1)nc(-c1ccc3nc(-c4ccncc4)ccc3c1)n2C1CCCCC1 [Compound 443, 1-cyclohexyl-2-(2-pyridin-4-yl-quinolin-6-yl)-1H-benzoimidazole-5-carboxylic acid] | 87 | 98.7
COc1ccc(-c2ccccc2C)c(-c2ccc3cc(-c4nc5cc(C(=O)O)ccc5n4C4CCCCC4)ccc3n2)c1 [Compound 548] | 103 | 101
O=C(O)c1ccc2c(c1)nc(-c1ccc3nc(-c4ccc5c(c4)OCO5)ccc3c1)n2C1CCCCC1 [Compound 412, 2-(2-benzo[1,3]dioxol-5-yl-quinolin-6-yl)-1-cyclohexyl-1H-benzoimidazole-5-carboxylic acid] | 98.4 | 100
COc1ccc(-c2ccc(Cl)cc2)c(-c2ccc3cc(-c4nc5cc(C(=O)O)ccc5n4CC4CCCO4)ccc3n2)c1 (stereo not shown) [Compound 566, 2-[2-(4′-chloro-4-methoxy-biphen-2-yl)-quinolin-6-yl]-1-(tetrahydrofuran-2-yl-methyl)-1H-benzoimidazole-5-carboxylic acid] | 99.2 | 100
COc1ccc(-c2cccs2)c(-c2ccc3cc(-c4nc5cc(C(=O)O)ccc5n4C4CCCCC4)ccc3n2)c1 [Compound 470, 1-cyclohexyl-2-[2-(5-methoxy-2-thiophen-2-yl-phenyl)-quinolin-6-yl]-1H-benzoimidazole-5-carboxylic acid] | 101 | 99.4
O=C(O)c1ccc2c(c1)nc(-c1ccc3nc(-c4ccccc4)cc(NCCCCO)c3c1)n2C1CCCCC1 [Compound 398, 1-cyclohexyl-2-[4-(4-hydroxy-butylamino)-2-phenyl-quinolin-6-yl]-1H-benzoimidazole-5-carboxylic acid] | 59.6 | 92
O=C(O)CCNC(=O)c1ccc2c(c1)nc(-c1ccc3nc(-c4ccccc4)cnc3c1)n2C1CCCCC1 [Compound 239, 3-{[1-Cyclohexyl-2-(2-phenyl-quinoxalin-6-yl)-1H-benzoimidazole-5-carbonyl]-amino}-propionic acid] | 49.1 | 70.2
O=C(N[C@@H](Cc1ccc(-c2ccccc2)cc1)C(=O)O)c1ccc2c(c1)nc(-c1ccc3nc(-c4ccccc4)cnc3c1)n2C1CCCCC1 [Compound 240, 3-Biphenyl-4-yl-2-{[1-cyclohexyl-2-(2-phenyl-quinoxalin-6-yl)-1H-benzoimidazole-5-carbonyl]-amino}propionic acid] | 95.7 | 96.1
O=C(O)c1ccc2c(c1)nc(-c1ccc3nc(-c4ccccc4)cc(Nc4ccccc4)c3c1)n2C1CCCCC1 [Compound 433, 1-cyclohexyl-2-(2-phenyl-4-phenylamino-quinolin-6-yl)-1H-benzoimidazole-5-carboxylic acid] | 92.5 | 100
O=C(O)c1ccc2c(c1)nc(-c1ccc3nc(-c4cc5ccccc5o4)ccc3c1)n2C1CCCCC1 [Compound 413, 2-(2-benzofuran-2-yl-quinolin-6-yl)-1-cyclohexyl-1H-benzoimidazole-5-carboxylic acid] | 95.5 | 100
O=C(O)c1ccc2c(c1)nc(-c1ccc3nc(-c4cc(OCCCN5CCCC5)ccc4-c4ccccc4)ccc3c1)n2C1CCCCC1 [Compound 430, 1-Cyclohexyl-2-{2-[4-(3-pyrrolidin-1-yl-propoxy)-biphen-2-yl]-quinolin-6-yl}-1H-benzoimidazole-5-carboxylic acid] | 98 | 96.7
Nc1ccc(-c2ccc(Cl)cc2)c(-c2ccc3cc(-c4nc5cc(C(=O)O)ccc5n4C4CCCCC4)ccc3n2)c1 [Compound 569, 2-[2-(4-amino-4′-chloro-biphen-2-yl)-quinolin-6-yl]-1-cyclohexyl-1H-benzoimidazole-5-carboxylic acid] | 101 | 101
O=C(O)c1ccc2c(c1)nc(-c1ccc3ncc(-c4ccccc4)cc3c1)n2C1CCCCC1 [Compound 206, 1-Cyclohexyl-2-(3-phenyl-quinolin-6-yl)-1H-benzoimidazole-5-carboxylic acid] | 94.2 | 96.9
COc1ccc(-c2ccc(N(C)C)cc2)c(-c2ccc3cc(-c4nc5cc(C(=O)O)ccc5n4C4CCCCC4)ccc3n2)c1 [Compound 401, 1-cyclohexyl-2-[2-(4′-dimethylamino-4-methoxy-biphen-2-yl)-quinolin-6-yl]-1H-benzoimidazole-5-carboxylic acid] | 100 | 101
